Test results reported in the supplement of paper PMC10307832.

Key:
Assay in all cases: relative viability (nuclei count vs DMSO), 5 days (fraction); higher = more cells survive
CAP-232 + OSI-027 = compound: C[C@H]([C@@H](C(=O)N)NC(=O)[C@@H]1CSSC[C@@H](C(=O)N[C@H](C(=O)N[C@@H](C(=O)N[C@H](C(=O)N1)CCCCN)CC2=CNC3=CC=CC=C32)CC4=CC=C(C=C4)O)NC(=O)[C@@H](CC5=CC=CC=C5)N)O [CAP-232] + COc1cccc2cc(-c3nc([C@H]4CC[C@H](C(=O)O)CC4)n4ncnc(N)c34)[nH]c12 [OSI-027] (partner 0.5 µM)
Summary of the method: (§1)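 Lung cancer cell lines in 1536-well plates were dosed by pin tool the day after seeding, either with one drug alone or with a fixed anchor-drug dose plus five library-drug doses (not always all listed) in √10 steps. After 5 days, cells were fixed and their nuclei stained in one step (final 0.05% Triton X-100, 1% formaldehyde, 1 ug/ml Hoechst), then counted on 4× images. Relative viability is the nuclei count in treated wells divided by that in vehicle wells. Values are medians of duplicate plates.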

CAP-232 + Luminespib = compound: C[C@H]([C@@H](C(=O)N)NC(=O)[C@@H]1CSSC[C@@H](C(=O)N[C@H](C(=O)N[C@@H](C(=O)N[C@H](C(=O)N1)CCCCN)CC2=CNC3=CC=CC=C32)CC4=CC=C(C=C4)O)NC(=O)[C@@H](CC5=CC=CC=C5)N)O [CAP-232] + CCNC(=O)c1noc(-c2cc(C(C)C)c(O)cc2O)c1-c1ccc(CN2CCOCC2)cc1 [Luminespib] (partner 0.01 µM)
Summary of the method: as §1

CAP-232 + Decitabine = compound: C[C@H]([C@@H](C(=O)N)NC(=O)[C@@H]1CSSC[C@@H](C(=O)N[C@H](C(=O)N[C@@H](C(=O)N[C@H](C(=O)N1)CCCCN)CC2=CNC3=CC=CC=C32)CC4=CC=C(C=C4)O)NC(=O)[C@@H](CC5=CC=CC=C5)N)O [CAP-232] + Nc1ncn([C@H]2C[C@H](O)[C@@H](CO)O2)c(=O)n1 [Decitabine] (partner 2 µM)
Summary of the method: as §1

CAP-232 + Foretinib = compound: C[C@H]([C@@H](C(=O)N)NC(=O)[C@@H]1CSSC[C@@H](C(=O)N[C@H](C(=O)N[C@@H](C(=O)N[C@H](C(=O)N1)CCCCN)CC2=CNC3=CC=CC=C32)CC4=CC=C(C=C4)O)NC(=O)[C@@H](CC5=CC=CC=C5)N)O [CAP-232] + COc1cc2c(Oc3ccc(NC(=O)C4(C(=O)Nc5ccc(F)cc5)CC4)cc3F)ccnc2cc1OCCCN1CCOCC1 [Foretinib] (partner 0.25 µM)
Summary of the method: as §1

CAP-232 + Alpelisib = compound: C[C@H]([C@@H](C(=O)N)NC(=O)[C@@H]1CSSC[C@@H](C(=O)N[C@H](C(=O)N[C@@H](C(=O)N[C@H](C(=O)N1)CCCCN)CC2=CNC3=CC=CC=C32)CC4=CC=C(C=C4)O)NC(=O)[C@@H](CC5=CC=CC=C5)N)O [CAP-232] + Cc1nc(NC(=O)N2CCC[C@H]2C(N)=O)sc1-c1ccnc(C(C)(C)C(F)(F)F)c1 [Alpelisib] (partner 2 µM)
Summary of the method: as §1

Row | Cell Line | relative viability (CAP-232 + OSI-027; first compound 0.4 µM) | relative viability (CAP-232 + OSI-027; first compound 1.265 µM) | relative viability (CAP-232 + OSI-027; first compound 4 µM) | relative viability (CAP-232 + OSI-027; first compound 12.65 µM) | relative viability (CAP-232 + Luminespib; first compound 0.4 µM) | relative viability (CAP-232 + Luminespib; first compound 1.265 µM) | relative viability (CAP-232 + Luminespib; first compound 4 µM) | relative viability (CAP-232 + Luminespib; first compound 12.65 µM) | relative viability (CAP-232 + Decitabine; first compound 0.4 µM) | relative viability (CAP-232 + Decitabine; first compound 1.265 µM) | relative viability (CAP-232 + Decitabine; first compound 4 µM) | relative viability (CAP-232 + Decitabine; first compound 12.65 µM) | relative viability (CAP-232 + Foretinib; first compound 0.4 µM) | relative viability (CAP-232 + Foretinib; first compound 1.265 µM) | relative viability (CAP-232 + Foretinib; first compound 4 µM) | relative viability (CAP-232 + Foretinib; first compound 12.65 µM) | relative viability (CAP-232 + Alpelisib; first compound 0.4 µM) | relative viability (CAP-232 + Alpelisib; first compound 1.265 µM) | relative viability (CAP-232 + Alpelisib; first compound 4 µM) | relative viability (CAP-232 + Alpelisib; first compound 12.65 µM)
1 | EKVX | 0.724 | 0.779 | 0.667 | 0.64 | 0.876 | 0.719 | 0.871 | 0.645 | 0.993 | 0.367 | 0.256 | 0.323 | 0.77 | 0.571 | 0.768 | 0.768 | 0.806 | 0.969 | 0.833 | 0.715
2 | A-427 | 0.306 | 0.458 | 0.494 | 0.612 | 0.697 | 0.968 | 0.87 | 1.03 | 0.578 | 0.556 | 0.599 | 0.56 | 0.852 | 1.19 | 1.05 | 1.1 | 1.08 | 1.04 | 1.06 | 1.08
3 | IA-LM | – | – | – | – | – | – | – | – | – | – | – | – | 1.15 | 1.14 | 1.22 | 0.386 | 0.881 | 0.742 | 0.629 | 0.296
4 | ChaGo-K-1 | 0.65 | 0.504 | 0.678 | 0.6 | 0.574 | 0.638 | 0.495 | 0.545 | 0.497 | 0.542 | 0.506 | 0.547 | 0.954 | 0.779 | 0.836 | 0.912 | – | – | – | –
5 | NCI-H2342 | 0.565 | 0.555 | 0.623 | 0.568 | 0.786 | 0.765 | 0.719 | 0.699 | 0.714 | 0.81 | 0.736 | 0.666 | 0.944 | 1.03 | 0.995 | 0.995 | – | – | – | –
6 | SK-MES-1 | 0.696 | 0.557 | 0.583 | 0.264 | 0.726 | 0.889 | 0.888 | 0.531 | 0.452 | 0.344 | 0.384 | 0.274 | 0.935 | 1.04 | 0.95 | 0.771 | 0.997 | 0.944 | 1.06 | 0.938
7 | CAL-12T | 0.611 | 0.556 | 0.585 | 0.298 | 0.132 | 0.184 | 0.242 | 0.155 | – | – | – | – | 1.06 | 1.06 | 0.927 | 0.85 | 1.11 | 1.24 | 1.42 | 0.726
8 | NCI-H1792 | 0.996 | 0.76 | 0.875 | 0.832 | 0.375 | 0.445 | 0.371 | 0.279 | 0.636 | 0.54 | 0.555 | 0.365 | – | – | – | – | 0.825 | 0.823 | 0.819 | 0.399
9 | HCC-366 | 0.986 | 0.875 | 1.22 | 0.82 | – | – | – | – | 0.407 | 0.301 | 0.317 | 0.384 | 0.914 | 0.948 | 0.891 | 0.898 | 0.488 | 0.337 | 0.521 | 0.243
10 | HCC-44 | 0.636 | 0.507 | 0.489 | 0.371 | 1.35 | 1.01 | 0.759 | 1 | 1.03 | 0.962 | 0.972 | 0.935 | – | – | – | – | 0.898 | 0.768 | 0.843 | 0.75
11 | NCI-H1703 | – | – | – | – | – | – | – | – | – | – | – | – | 0.304 | 0.364 | 0.323 | 0.409 | 0.34 | 0.378 | 0.344 | 0.351
12 | NCI-H1650 | 0.637 | 0.491 | 0.756 | 0.215 | 0.195 | 0.197 | 0.214 | 0.126 | 0.404 | 0.423 | 0.554 | 0.192 | 1.07 | 1.11 | 1.25 | 0.542 | – | – | – | –
13 | A549 | – | – | – | – | – | – | – | – | 0.267 | 0.212 | 0.33 | 0.239 | 1.01 | 0.998 | 0.935 | 0.369 | 0.659 | 0.653 | 0.734 | 0.348
14 | HCC-78 | 0.356 | 0.364 | 0.368 | 0.397 | – | – | – | – | 0.755 | 0.764 | 0.687 | 0.636 | 0.564 | 0.562 | 0.473 | 0.568 | 0.317 | 0.371 | 0.312 | 0.819
15 | NCI-H522 | 0.72 | 0.702 | 0.806 | 0.696 | 1.08 | 1.11 | 1.15 | 1.3 | 0.677 | 0.623 | 0.572 | 0.658 | – | – | – | – | – | – | – | –
16 | SW 900 | 0.66 | 0.54 | 0.726 | 0.449 | 0.171 | 0.185 | 0.187 | 0.169 | 0.442 | 0.369 | 0.355 | 0.454 | 0.819 | 0.816 | 0.96 | 0.858 | – | – | – | –
17 | NCI-H2228 | 0.712 | 0.494 | 0.665 | 0.556 | 0.142 | 0.128 | 0.189 | 0.177 | – | – | – | – | 0.826 | 0.938 | 1.09 | 0.485 | 0.816 | 0.572 | 0.777 | 0.848
